In ChEMBL document CHEMBL1149733, “Antitumor agents, 130, Novel 4 beta-arylamino derivatives of 3',4'-didemethoxy-3',4'-dioxo-4-deoxypodophyllotoxin as potent inhibitors of human DNA topoisomerase II” (1992):
Each block holds one molecule with its values, some of them ahead of it.

Legend:
[1] = target: DNA topoisomerase 2-alpha (Homo sapiens) (UniProt P11388); assay: Inhibition of human DNA topoisomerase 2
KB = assay: Cytotoxicity against human KB cells assessed as reduction in cell number after 3 days; format: functional; settings: 72 h, read-out: ID50 (the source's name)
[2] = target: DNA topoisomerase 2-alpha (Homo sapiens) (UniProt P11388); assay: Inhibition of strand rejoining activity of human DNA topoisomerase 2 assessed as protein-DNA complex formation at 20 uM by cell-based assay; parameters: scale not given: the % may be the effect or the level left
[3] = target: DNA topoisomerase 2-alpha (Homo sapiens) (UniProt P11388); assay: Inhibition of strand rejoining activity of human DNA topoisomerase 2 assessed as protein-DNA complex formation at 10 uM by cell-based assay; parameters: scale not given: the % may be the effect or the level left

Chain of DNA topoisomerase 2-alpha (Homo sapiens) (P11388 whole entry): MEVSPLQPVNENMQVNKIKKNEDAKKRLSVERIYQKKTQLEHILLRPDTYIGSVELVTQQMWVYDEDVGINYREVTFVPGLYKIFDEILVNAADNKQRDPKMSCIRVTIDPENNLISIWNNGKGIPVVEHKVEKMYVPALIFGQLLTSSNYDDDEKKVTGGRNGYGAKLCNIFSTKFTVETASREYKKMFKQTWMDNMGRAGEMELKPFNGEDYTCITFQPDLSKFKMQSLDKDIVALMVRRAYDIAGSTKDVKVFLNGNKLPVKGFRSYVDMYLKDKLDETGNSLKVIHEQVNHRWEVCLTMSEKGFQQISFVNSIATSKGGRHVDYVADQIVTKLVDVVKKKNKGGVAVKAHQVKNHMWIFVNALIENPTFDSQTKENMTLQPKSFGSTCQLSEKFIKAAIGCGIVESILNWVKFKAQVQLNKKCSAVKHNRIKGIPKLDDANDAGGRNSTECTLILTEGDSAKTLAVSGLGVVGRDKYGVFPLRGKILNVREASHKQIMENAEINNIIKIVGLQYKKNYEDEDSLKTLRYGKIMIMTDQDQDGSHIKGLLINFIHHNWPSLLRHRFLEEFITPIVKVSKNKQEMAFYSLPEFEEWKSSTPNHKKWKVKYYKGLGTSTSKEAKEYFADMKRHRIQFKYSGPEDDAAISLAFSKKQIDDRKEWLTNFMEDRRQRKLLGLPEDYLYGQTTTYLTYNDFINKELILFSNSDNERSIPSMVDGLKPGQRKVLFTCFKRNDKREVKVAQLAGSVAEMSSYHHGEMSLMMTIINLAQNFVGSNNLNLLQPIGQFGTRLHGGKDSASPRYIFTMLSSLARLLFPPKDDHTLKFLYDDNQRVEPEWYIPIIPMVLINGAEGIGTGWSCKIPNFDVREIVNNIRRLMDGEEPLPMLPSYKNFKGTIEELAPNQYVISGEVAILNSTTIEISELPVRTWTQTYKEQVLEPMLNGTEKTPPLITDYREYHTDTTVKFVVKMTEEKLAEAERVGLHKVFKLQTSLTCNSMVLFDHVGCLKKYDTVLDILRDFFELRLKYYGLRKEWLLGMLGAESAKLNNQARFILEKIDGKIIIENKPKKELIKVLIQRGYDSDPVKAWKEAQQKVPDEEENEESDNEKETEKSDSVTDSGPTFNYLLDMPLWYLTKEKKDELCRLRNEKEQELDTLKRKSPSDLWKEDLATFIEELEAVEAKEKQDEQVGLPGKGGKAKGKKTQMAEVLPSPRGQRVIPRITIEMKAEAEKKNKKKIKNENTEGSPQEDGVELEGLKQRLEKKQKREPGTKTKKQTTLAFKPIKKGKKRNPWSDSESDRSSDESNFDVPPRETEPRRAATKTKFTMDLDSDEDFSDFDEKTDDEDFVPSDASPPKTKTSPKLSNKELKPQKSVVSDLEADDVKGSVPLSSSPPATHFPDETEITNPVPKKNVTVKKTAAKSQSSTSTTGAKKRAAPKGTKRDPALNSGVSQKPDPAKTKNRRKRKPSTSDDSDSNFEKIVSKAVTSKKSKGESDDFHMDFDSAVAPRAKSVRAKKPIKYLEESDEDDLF

SMILES: COC1=CC([C@@H]2c3cc4c(cc3[C@@H](Oc3ccc(F)cc3)[C@H]3COC(=O)[C@@H]32)OCO4)=CC(=O)C1=O
ID50 [1]: 100 µM
IC50 (KB): 0.9 µM
Activity [2]: 30%

SMILES: COc1cc([C@@H]2c3cc4c(cc3[C@@H](Nc3ccc(F)cc3)[C@H]3COC(=O)[C@H]23)OCO4)cc(O)c1O
ID50 [1]: 10 µM
IC50 (KB): 1.5 µM
Activity [2]: 117%

SMILES: COc1cc([C@@H]2c3cc4c(cc3[C@@H](Nc3cncc5ccccc35)[C@H]3COC(=O)[C@H]23)OCO4)cc(OC)c1O
Activity [3]: 123%
ID50 [1]: 50 µM
IC50 (KB): < 1 µM

SMILES: COC1=CC([C@@H]2c3cc4c(cc3[C@@H](Nc3cccc(Br)c3)[C@H]3COC(=O)[C@@H]32)OCO4)=CC(=O)C1=O
ID50 [1]: 50 µM
IC50 (KB): 6.1 µM
Activity [2]: 15%

SMILES: COC1=CC([C@@H]2c3cc4c(cc3C(=O)[C@H]3COC(=O)[C@@H]32)OCO4)=CC(=O)C1=O
ID50 [1]: 5 µM
IC50 (KB): > 4 µM
Activity [2]: 56%

SMILES: COC1=CC([C@@H]2c3cc4c(cc3[C@@H](Nc3ccc(F)cc3)[C@H]3COC(=O)[C@@H]32)OCO4)=CC(=O)C1=O
ID50 [1]: 25 µM
IC50 (KB): 1.3 µM
Activity [2]: 92%

SMILES: COC1=CC([C@@H]2c3cc4c(cc3[C@@H](Nc3cncc5ccccc35)[C@H]3COC(=O)[C@@H]32)OCO4)=CC(=O)C1=O
ID50 [1]: 100 µM
IC50 (KB): 1.5 µM
Activity [2]: 95%

SMILES: COc1cc([C@@H]2c3cc4c(cc3[C@@H](Nc3cccc(F)c3)[C@H]3COC(=O)[C@H]23)OCO4)cc(OC)c1O
Activity [3]: 158%
ID50 [1]: 50 µM

SMILES: COC1=CC([C@@H]2c3cc4c(cc3[C@@H](Nc3cc(F)cc(F)c3)[C@H]3COC(=O)[C@@H]32)OCO4)=CC(=O)C1=O
ID50 [1]: 50 µM
IC50 (KB): 2 µM
Activity [2]: 57%

SMILES: COc1cc([C@@H]2c3cc4c(cc3[C@@H](Oc3ccc(F)cc3)[C@H]3COC(=O)[C@H]23)OCO4)cc(OC)c1O
Activity [3]: 57%
ID50 [1]: > 100 µM
IC50 (KB): 0.5 µM

SMILES: COc1cc([C@@H]2c3cc4c(cc3[C@@H](Nc3cc(C(F)(F)F)cc(C(F)(F)F)c3)[C@H]3COC(=O)[C@H]23)OCO4)cc(OC)c1O
Activity [3]: 21%
ID50 [1]: > 100 µM
IC50 (KB): 3.4 µM

SMILES: COc1cc([C@@H]2c3cc4c(cc3[C@@H](Nc3cc(F)cc(F)c3)[C@H]3COC(=O)[C@H]23)OCO4)cc(OC)c1O
Activity [3]: 115%
ID50 [1]: 50 µM

SMILES: COC1=CC([C@@H]2c3cc4c(cc3[C@@H](O)[C@H]3COC(=O)[C@@H]32)OCO4)=CC(=O)C1=O
ID50 [1]: < 5 µM
IC50 (KB): 2.8 µM
Activity [2]: 41%

SMILES: COC1=CC([C@@H]2c3cc4c(cc3[C@@H](Nc3ccccc3)[C@H]3COC(=O)[C@@H]32)OCO4)=CC(=O)C1=O
ID50 [1]: 25 µM
IC50 (KB): > 2 µM
Activity [2]: 32%

SMILES: COC1=CC([C@@H]2c3cc4c(cc3[C@@H](Nc3cccc([N+](=O)[O-])c3)[C@H]3COC(=O)[C@@H]32)OCO4)=CC(=O)C1=O
ID50 [1]: 50 µM
IC50 (KB): > 4 µM
Activity [2]: 33%

SMILES: COC1=CC([C@@H]2c3cc4c(cc3[C@@H](Nc3cc(C(F)(F)F)cc(C(F)(F)F)c3)[C@H]3COC(=O)[C@@H]32)OCO4)=CC(=O)C1=O
ID50 [1]: > 100 µM
IC50 (KB): 5.5 µM
Activity [2]: 4%

SMILES: COc1cc([C@@H]2c3cc4c(cc3[C@@H](Nc3ccccc3)[C@H]3COC(=O)[C@H]23)OCO4)cc(OC)c1O
Activity [3]: 243%
ID50 [1]: 25 µM
IC50 (KB): 0.7 µM

SMILES: COc1cc([C@@H]2c3cc4c(cc3[C@@H](Nc3cccc([N+](=O)[O-])c3)[C@H]3COC(=O)[C@H]23)OCO4)cc(OC)c1O
Activity [3]: 230%
ID50 [1]: 50 µM
IC50 (KB): 1 µM

SMILES: COc1cc([C@@H]2c3cc4c(cc3[C@@H](Nc3ccc(Cl)cc3)[C@H]3COC(=O)[C@H]23)OCO4)cc(O)c1O
ID50 [1]: > 50 µM
IC50 (KB): 2 µM
Activity [2]: 77%

SMILES: CCOC(=O)c1ccccc1N[C@@H]1c2cc3c(cc2[C@@H](C2=CC(=O)C(=O)C(OC)=C2)[C@H]2C(=O)OC[C@@H]21)OCO3
ID50 [1]: 100 µM
IC50 (KB): 7 µM
Activity [2]: 4%

SMILES: COc1cc([C@@H]2c3cc4c(cc3[C@@H](Nc3cccc([N+](=O)[O-])c3)[C@H]3COC(=O)[C@H]23)OCO4)cc(O)c1O
ID50 [1]: 50 µM
IC50 (KB): 2 µM
Activity [2]: 75%

SMILES: COc1cc([C@@H]2c3cc4c(cc3[C@@H](Nc3ccc(Cl)cc3)[C@H]3COC(=O)[C@H]23)OCO4)cc(OC)c1O
Activity [3]: 99%
ID50 [1]: 50 µM

SMILES: COc1cc([C@@H]2c3cc4c(cc3[C@@H](Nc3ccccc3F)[C@H]3COC(=O)[C@H]23)OCO4)cc(OC)c1O
Activity [3]: 121%

SMILES: COC1=CC([C@@H]2c3cc4c(cc3[C@@H](Nc3cccc(F)c3)[C@H]3COC(=O)[C@@H]32)OCO4)=CC(=O)C1=O
ID50 [1]: 100 µM
IC50 (KB): 1.6 µM
Activity [2]: 37%

ID50 [1]: 50 µM
Activity [2]: 8%
SMILES: COc1cc([C@@H]2c3cc4c(cc3[C@H](O)[C@H]3COC(=O)[C@H]23)OCO4)cc(O)c1O

SMILES: COc1cc([C@@H]2c3cc4c(cc3[C@@H](Nc3ccc([N+](=O)[O-])cc3)[C@H]3COC(=O)[C@H]23)OCO4)cc(OC)c1O
Activity [3]: 323%
ID50 [1]: 10 µM
IC50 (KB): 0.5 µM

SMILES: COC1=CC([C@@H]2c3cc4c(cc3[C@@H](Nc3cc([N+](=O)[O-])cc([N+](=O)[O-])c3)[C@H]3COC(=O)[C@@H]32)OCO4)=CC(=O)C1=O
ID50 [1]: 50 µM
IC50 (KB): 1.8 µM
Activity [2]: 32%

SMILES: COC(=O)c1cccc(N[C@@H]2c3cc4c(cc3[C@@H](c3cc(OC)c(O)c(OC)c3)[C@H]3C(=O)OC[C@@H]32)OCO4)c1
Activity [3]: 129%
ID50 [1]: 50 µM
IC50 (KB): 2.7 µM

SMILES: COc1cc([C@@H]2c3cc4c(cc3[C@@H](Nc3ccc(CC#N)cc3)[C@H]3COC(=O)[C@H]23)OCO4)cc(O)c1O
ID50 [1]: 25 µM
IC50 (KB): 1.2 µM
Activity [2]: 109%

SMILES: COc1cc([C@@H]2c3cc4c(cc3[C@@H](Nc3ccc(C#N)cc3)[C@H]3COC(=O)[C@H]23)OCO4)cc(OC)c1O
Activity [3]: 211%
IC50 (KB): 0.6 µM

SMILES: COc1cc([C@@H]2c3cc4c(cc3[C@@H](Nc3cccc(Br)c3)[C@H]3COC(=O)[C@H]23)OCO4)cc(OC)c1O
Activity [3]: 62%

SMILES: COc1cc([C@@H]2c3cc4c(cc3[C@@H](Nc3ccc(C#N)cc3)[C@H]3COC(=O)[C@H]23)OCO4)cc(O)c1O
ID50 [1]: 25 µM
IC50 (KB): 1.8 µM
Activity [2]: 146%

SMILES: COc1cc([C@@H]2c3cc4c(cc3[C@@H](Nc3ccc([N+](=O)[O-])cc3)[C@H]3COC(=O)[C@H]23)OCO4)cc(O)c1O
ID50 [1]: 10 µM
IC50 (KB): 1.3 µM
Activity [2]: 200%

ID50 [1]: 100 µM
Activity [2]: 50%
SMILES: COc1cc([C@@H]2c3cc4c(cc3[C@@H](O)[C@H]3COC(=O)[C@H]23)OCO4)cc(O)c1O

SMILES: COC(=O)c1cccc(N[C@@H]2c3cc4c(cc3[C@@H](c3cc(O)c(O)c(OC)c3)[C@H]3C(=O)OC[C@@H]32)OCO4)c1
ID50 [1]: 25 µM
IC50 (KB): 2.3 µM
Activity [2]: 94%

SMILES: CCOC(=O)c1ccc(N[C@@H]2c3cc4c(cc3[C@@H](C3=CC(=O)C(=O)C(OC)=C3)[C@H]3C(=O)OC[C@@H]32)OCO4)cc1
ID50 [1]: 25 µM
IC50 (KB): 1.4 µM
Activity [2]: 110%

SMILES: COC1=CC([C@@H]2c3cc4c(cc3[C@@H](Nc3ccccc3F)[C@H]3COC(=O)[C@@H]32)OCO4)=CC(=O)C1=O
ID50 [1]: 100 µM
IC50 (KB): 1.2 µM
Activity [2]: 29%

SMILES: COc1cc([C@@H]2c3cc4c(cc3[C@@H](Nc3ccc(C(C)=O)cc3)[C@H]3COC(=O)[C@H]23)OCO4)cc(O)c1O
ID50 [1]: 25 µM
IC50 (KB): 1 µM
Activity [2]: 147%

SMILES: COC1=CC([C@@H]2c3cc4c(cc3[C@H](O)[C@H]3COC(=O)[C@@H]32)OCO4)=CC(=O)C1=O
ID50 [1]: 10 µM
IC50 (KB): 1.9 µM
Activity [2]: 4%

SMILES: COC1=CC([C@@H]2c3cc4c(cc3[C@@H](Nc3ccc([N+](=O)[O-])cc3)[C@H]3COC(=O)[C@@H]32)OCO4)=CC(=O)C1=O
ID50 [1]: 10 µM
IC50 (KB): 1.3 µM
Activity [2]: 128%

SMILES: COc1cc([C@@H]2c3cc4c(cc3[C@H](O)[C@H]3COC(=O)[C@H]23)OCO4)cc(OC)c1O
Activity [3]: 1.1%
ID50 [1]: > 100 µM

SMILES: COc1cc([C@@H]2c3cc4c(cc3[C@@H](O)[C@H]3COC(=O)[C@H]23)OCO4)cc(OC)c1O
Activity [3]: 0%
ID50 [1]: > 100 µM

SMILES: COC1=CC([C@@H]2c3cc4c(cc3[C@@H](Nc3ccc(C(F)(F)F)cc3)[C@H]3COC(=O)[C@@H]32)OCO4)=CC(=O)C1=O
ID50 [1]: 25 µM
IC50 (KB): 6.5 µM
Activity [2]: 51%

SMILES: COC1=CC([C@@H]2c3cc4c(cc3[C@@H](Nc3ccc(C(C)=O)cc3)[C@H]3COC(=O)[C@@H]32)OCO4)=CC(=O)C1=O
ID50 [1]: 50 µM
IC50 (KB): 1.5 µM
Activity [2]: 69%

SMILES: COC(=O)c1ccc(N[C@@H]2c3cc4c(cc3[C@@H](C3=CC(=O)C(=O)C(OC)=C3)[C@H]3C(=O)OC[C@@H]32)OCO4)cc1O
ID50 [1]: 100 µM
IC50 (KB): 1.9 µM
Activity [2]: 47%

SMILES: COC1=CC([C@@H]2c3cc4c(cc3[C@@H](Nc3ccc(CC#N)cc3)[C@H]3COC(=O)[C@@H]32)OCO4)=CC(=O)C1=O
ID50 [1]: 25 µM
IC50 (KB): 2 µM
Activity [2]: 41%

SMILES: COc1cc([C@@H]2c3cc4c(cc3[C@@H](Nc3ccccc3)[C@H]3COC(=O)[C@H]23)OCO4)cc(O)c1O
ID50 [1]: 25 µM
IC50 (KB): 1.8 µM
Activity [2]: 128%

SMILES: COC1=CC([C@@H]2c3cc4c(cc3[C@@H](Nc3ccc(Cl)cc3)[C@H]3COC(=O)[C@@H]32)OCO4)=CC(=O)C1=O
ID50 [1]: 25 µM
IC50 (KB): > 4 µM
Activity [2]: 27%

SMILES: COC(=O)c1cccc(N[C@@H]2c3cc4c(cc3[C@@H](C3=CC(=O)C(=O)C(OC)=C3)[C@H]3C(=O)OC[C@@H]32)OCO4)c1
ID50 [1]: 100 µM
IC50 (KB): 1.2 µM
Activity [2]: 67%

SMILES: COC1=CC([C@@H]2c3cc4c(cc3[C@@H](Nc3ccc(C#N)cc3)[C@H]3COC(=O)[C@@H]32)OCO4)=CC(=O)C1=O
ID50 [1]: 50 µM
IC50 (KB): > 2 µM
Activity [2]: 18%
